Measurements published in patent publication US12338243B2, “P2X7 modulators” (JANSSEN PHARMACEUTICA NV, priority 2014, dated 2025).

Assays:
P2X7 [1] = target: T1, P2X7 (Homo sapiens, UniProt Q99572); experiment: Ca2+ flux (FLIPR) in 1321N1 cells expressing recombinant human P2X7 channel; assay type: cell-based; parameters: expressed in transfected cells; host or cells: 1321N1 cells; conditions: 250 μM BzATP
T1 sequence (Q99572 1-595): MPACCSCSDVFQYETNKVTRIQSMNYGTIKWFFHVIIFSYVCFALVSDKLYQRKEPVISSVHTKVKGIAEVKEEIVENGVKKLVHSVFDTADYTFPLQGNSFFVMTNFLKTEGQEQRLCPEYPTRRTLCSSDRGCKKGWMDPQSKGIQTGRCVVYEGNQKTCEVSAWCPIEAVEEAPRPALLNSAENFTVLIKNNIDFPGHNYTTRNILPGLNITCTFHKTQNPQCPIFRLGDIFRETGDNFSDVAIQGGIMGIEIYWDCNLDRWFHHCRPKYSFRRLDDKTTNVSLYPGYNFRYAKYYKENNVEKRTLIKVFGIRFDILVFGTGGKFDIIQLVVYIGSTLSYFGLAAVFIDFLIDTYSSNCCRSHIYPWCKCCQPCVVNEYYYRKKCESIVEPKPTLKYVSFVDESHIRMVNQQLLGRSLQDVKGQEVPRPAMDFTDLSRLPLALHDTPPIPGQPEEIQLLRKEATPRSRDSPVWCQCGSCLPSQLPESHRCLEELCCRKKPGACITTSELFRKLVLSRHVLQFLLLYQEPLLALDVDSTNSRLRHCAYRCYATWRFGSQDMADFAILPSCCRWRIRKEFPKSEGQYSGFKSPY
Procedure: P2X7 Antagonism in Recombinant Human P2X7 Cells or Recombinant Rat P2X7 Cells: (a) Ca^2+ Flux and (b) Radioligand Binding
(a) Ca^2+ flux: 1321N1 cells expressing the recombinant human or rat P2X7 channel was cultured in HyQ DME/(HyClone/Dulbecco's Modified Eagle Medium) high glucose supplemented with 10% Fetal Bovine Serum (FBS) and appropriate selection marker. Cells were seeded at a density of 25000 cells/well (96-well clear bottom black walled plates) in 100 μl volume/well. On the day of the experiment, cell plates were washed with assay buffer, containing (in mM): 130 NaCl, 2 KCl, 1 CaCl2), 1 MgCl2, 10 HEPES, 5 glucose; pH 7.40 and 300 mOs. After the wash, cells were loaded with the Calcium-4 dye (Molecular Device) and incubated in the dark for 60 minutes. Test compounds were prepared at 250× the test concentration in neat DMSO. Intermediate 96-well compound plates were prepared by transferring 1.2 μL of the compound into 300 μL of assay buffer. A further 3× dilution occurred when transferring 50 μL/well of the compound plate to 100 μL/well in the cell plate. Cells were incubated with test compounds and dye for 30 minutes. […] The fluorescence change was measured 180 seconds after adding the agonist.

P2X7 [2] = target: T1, P2X7; experiment: Radioligand binding, human P2X7-1321N1 cell membranes, tritiated A-804598
rat P2X7 [3] = target: T2, rat P2X7 (Rattus norvegicus, UniProt Q64663); experiment: Ca2+ flux (FLIPR) in 1321N1 cells expressing recombinant rat P2X7 channel; conditions: FLIPR (rat) IC50 (μM), 250 μM BzATP
T2 sequence (Q64663 1-595): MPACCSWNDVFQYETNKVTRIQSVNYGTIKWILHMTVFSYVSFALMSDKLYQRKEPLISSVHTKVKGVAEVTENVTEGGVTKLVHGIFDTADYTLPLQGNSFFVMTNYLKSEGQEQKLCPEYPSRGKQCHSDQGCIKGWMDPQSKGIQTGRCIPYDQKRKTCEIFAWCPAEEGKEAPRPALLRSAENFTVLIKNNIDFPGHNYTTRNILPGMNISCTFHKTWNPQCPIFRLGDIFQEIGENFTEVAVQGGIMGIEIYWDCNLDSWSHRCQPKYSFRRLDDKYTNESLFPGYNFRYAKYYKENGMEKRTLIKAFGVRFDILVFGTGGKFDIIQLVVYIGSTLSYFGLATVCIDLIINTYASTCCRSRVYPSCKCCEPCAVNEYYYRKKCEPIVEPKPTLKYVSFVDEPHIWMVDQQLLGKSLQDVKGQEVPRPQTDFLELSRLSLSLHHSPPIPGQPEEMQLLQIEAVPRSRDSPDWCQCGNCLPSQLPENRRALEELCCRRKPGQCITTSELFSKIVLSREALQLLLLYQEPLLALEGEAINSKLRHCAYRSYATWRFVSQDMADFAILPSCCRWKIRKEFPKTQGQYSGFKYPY

rat P2X7 [4] = target: T2, rat P2X7; experiment: Radioligand binding, rat P2X7-1321N1 cell membranes, tritiated A-804598

Row | SMILES | IC50 (P2X7 [1]) [nM] | Ki (P2X7 [2]) [nM] | IC50 (rat P2X7 [3]) [µM] | Ki (rat P2X7 [4]) [nM]
1 | Cc1nnc2n1CCN(C(=O)c1cccc(C(F)(F)F)c1Cl)C2c1ccccn1 (racemic) [Example 85, (±)-(2-chloro-3-(trifluoromethyl)phenyl)(3-methyl-8-(pyridin-2-yl)-5,6-dihydro-[1,2,4]triazolo[4,3-a]pyrazin-7(8H)-yl)methanone] | 30.1 | 39.8 | 1.02 | –
2 | O=C(c1cccc(Cl)c1Cl)N1CCn2c(nnc2C(F)(F)F)C1c1ccccc1 (racemic) [Example 90, (±)-(2,3-dichlorophenyl)(8-phenyl-3-(trifluoromethyl)-5,6-dihydro-[1,2,4]triazolo[4,3-a]pyrazin-7(8H)-yl)methanone] | 11.9 | 20 | 0.964 | –
3 | Cc1nnc2n1CCN(C(=O)c1cccc(C(F)(F)F)c1Cl)C2c1ccc(F)cc1 (racemic) [Example 101, (±)-(2-chloro-3-(trifluoromethyl)phenyl)(8-(4-fluorophenyl)-3-methyl-5,6-dihydro-[1,2,4]triazolo[4,3-a]pyrazin-7(8H)-yl)methanone] | 27.8 | 31.6 | 5.06 | –
4 | O=C(c1cccc(C(F)(F)F)c1Cl)N1CCn2c(nnc2C(F)(F)F)C1c1cccnc1 (racemic) [Example 127, (±)-(2-chloro-3-(trifluoromethyl)phenyl)(8-(pyridin-3-yl)-3-(trifluoromethyl)-5,6-dihydro-[1,2,4]triazolo[4,3-a]pyrazin-7(8H)-yl)methanone] | 255 | 126 | 28.2 | –
5 | C[C@@H]1c2nnc(-c3ccccn3)n2CCN1C(=O)c1cccc(Cl)c1Cl (single isomer, unassigned) [Example 2] | – | – | 0.815 | 9.3
6 | C[C@H]1c2nnc(-c3ccccn3)n2CCN1C(=O)c1cccc(Cl)c1Cl (single isomer, unassigned) [Example 3] | – | – | > 10 | 1780
7 | CC1c2nnc(-c3ccccn3)n2CCN1C(=O)c1ccnc(C(F)(F)F)c1Cl (stereo not shown) [Example 16, (3-chloro-2-(trifluoromethyl)pyridin-4-yl)(8-methyl-3-(pyridin-2-yl)-5,6-dihydro-[1,2,4]triazolo[4,3-a]pyrazin-7(8H)-yl)methanone] | 19.5 | 100 | 0.0177 | –
8 | CC1c2nnc(-c3ccc(Cl)cc3)n2CCN1C(=O)c1cccc(C(F)(F)F)c1Cl (stereo not shown) [Example 37, (2-chloro-3-(trifluoromethyl)phenyl)(3-(4-chlorophenyl)-8-methyl-5,6-dihydro-[1,2,4]triazolo[4,3-a]pyrazin-7(8H)-yl)methanone] | 172 | 251 | 4.59 | –
9 | Cc1nnc2n1CCN(C(=O)c1cccc(C(F)(F)F)c1Cl)[C@@H]2c1ccccc1 [Example 67, (R)-(2-chloro-3-(trifluoromethyl)phenyl)(3-methyl-8-phenyl-5,6-dihydro-[1,2,4]triazolo[4,3-a]pyrazin-7(8H)-yl)methanone] | 483 | 316 | 2.05 | –
10 | O=C(c1cccc(C(F)(F)F)c1Cl)N1CCn2c(-c3ccco3)nnc2[C@@H]1c1ccccc1 [Example 84, (S)-(2-chloro-3-(trifluoromethyl)phenyl)(3-(furan-2-yl)-8-phenyl-5,6-dihydro-[1,2,4]triazolo[4,3-a]pyrazin-7(8H)-yl)methanone] | 2.5 | 20 | 0.0031 | –
11 | Cc1nnc2n1CCN(C(=O)c1cccc(C(F)(F)F)c1Cl)[C@@H]2c1ccccn1 [Example 91, (R)-(2-chloro-3-(trifluoromethyl)phenyl)(3-methyl-8-(pyridin-2-yl)-5,6-dihydro-[1,2,4]triazolo[4,3-a]pyrazin-7(8H)-yl)methanone] | 7.5 | 31.6 | 2.13 | –
12 | Cc1nnc2n1CCN(C(=O)c1cccc(Cl)c1Cl)[C@H]2c1ccc(F)cc1 [Example 105, (S)-(2,3-dichlorophenyl)(8-(4-fluorophenyl)-3-methyl-5,6-dihydro-[1,2,4]triazolo[4,3-a]pyrazin-7(8H)-yl)methanone] | 98.6 | 21.9 | 9.95 | –
13 | O=C(c1cccc(C(F)(F)F)c1Cl)N1CCn2c(C3CC3)nnc2[C@@H]1c1ccc(F)cc1 [Example 107, (S)-(2-chloro-3-(trifluoromethyl)phenyl)(3-cyclopropyl-8-(4-fluorophenyl)-5,6-dihydro-[1,2,4]triazolo[4,3-a]pyrazin-7(8H)-yl)methanone] | 12.8 | 10 | 0.178 | –
14 | Cc1nnc2n1CCN(C(=O)c1cccc(Cl)c1Cl)[C@@H]2c1ccccn1 [Example 112, (R)-(2,3-dichlorophenyl)(3-methyl-8-(pyridin-2-yl)-5,6-dihydro-[1,2,4]triazolo[4,3-a]pyrazin-7(8H)-yl)methanone] | 134 | 44.7 | 2.82 | –
15 | Cc1nnc2n1CCN(C(=O)c1cccc(C(F)(F)F)c1Cl)[C@H]2c1ccc(F)cc1 [Example 115, (S)-(2-chloro-3-(trifluoromethyl)phenyl)(8-(4-fluorophenyl)-3-methyl-5,6-dihydro-[1,2,4]triazolo[4,3-a]pyrazin-7(8H)-yl)methanone] | 8 | 10 | 0.623 | –
16 | Cc1c(C(=O)N2CCn3c(C)nnc3[C@@H]2c2ccc(F)cc2)cccc1C(F)(F)F [Example 117, (S)-(8-(4-fluorophenyl)-3-methyl-5,6-dihydro-[1,2,4]triazolo[4,3-a]pyrazin-7(8H)-yl)(2-methyl-3-(trifluoromethyl)phenyl)methanone] | 64 | 20 | 7.03 | –
17 | O=C(c1ccc(Cl)cc1Cl)N1CCn2c(nnc2C(F)(F)F)[C@H]1c1ccccc1 [Example 120, (R)-(2,4-dichlorophenyl)(8-phenyl-3-(trifluoromethyl)-5,6-dihydro-[1,2,4]triazolo[4,3-a]pyrazin-7(8H)-yl)methanone] | 476 | 50.1 | > 10 | –
18 | Cc1c(C(=O)N2CCn3c(nnc3C(F)(F)F)[C@H]2c2ccccc2)cccc1C(F)(F)F [Example 122, (R)-(2-methyl-3-(trifluoromethyl)phenyl)(8-phenyl-3-(trifluoromethyl)-5,6-dihydro-[1,2,4]triazolo[4,3-a]pyrazin-7(8H)-yl)methanone] | 9.8 | 10 | 0.262 | –
19 | O=C(c1ccc(F)c(Cl)c1Cl)N1CCn2c(nnc2C(F)(F)F)[C@H]1c1ccccc1 [Example 124, (R)-(2,3-dichloro-4-fluorophenyl)(8-phenyl-3-(trifluoromethyl)-5,6-dihydro-[1,2,4]triazolo[4,3-a]pyrazin-7(8H)-yl)methanone] | 10.6 | 7.9 | 0.288 | –
20 | O=C(c1cccc(C(F)(F)F)c1F)N1CCn2c(nnc2C(F)(F)F)[C@H]1c1ccccc1 [Example 128, (R)-(2-fluoro-3-(trifluoromethyl)phenyl)(8-phenyl-3-(trifluoromethyl)-5,6-dihydro-[1,2,4]triazolo[4,3-a]pyrazin-7(8H)-yl)methanone] | 68.5 | 50.1 | 0.291 | –
